Measurements taken from patent publication US6949542B2, “Dihydro-benzo[b][1,4]diazepin-2-one derivatives” (Hoffman-La Roche Inc., priority 2002, dated 2005).

Compound | melting point [°C]
Cc1cc(-c2cccc(C3=Nc4cc(NCC(C)C)c(Cl)cc4NC(=O)C3)c2)ccn1 [Example 79, 8-Chloro-7-isobutylamino-4-[3-(2-methyl-pyridin-4-yl)-phenyl]-1,3-dihydro-benzo[b][1,4]diazepin-2-one] | 220
CCCN(C)c1cc2c(cc1C(F)(F)F)NC(=O)CC(c1cccc(-c3ccncc3)c1)=N2 [Example 81, 7-(Methyl-propyl-amino)-4-(3-pyridin-4-yl-phenyl)-8-trifluoromethyl-1,3-dihydro-benzo[b][1,4]diazepin-2-one] | 192
Cc1cc(-c2cccc(C3=Nc4cc(Cl)c(C(F)(F)F)cc4NC(=O)C3)c2)ccn1 [Example 82, 7-Chloro-4-[3-(2-methyl-pyridin-4-yl)-phenyl]-8-trifluoromethyl-1,3-dihydro benzo[b][1,4]diazepin-2-one] | 221
CN(C)c1cc2c(cc1C(F)(F)F)NC(=O)CC(c1cccc(-c3cncnc3)c1)=N2 [Example 85, 7-Dimethylamino-4-(3-pyrimidin-5-yl-phenyl)-8-trifluoromethyl-1,3-dihydro-benzo[b][1,4]diazepin-2-one] | 200
Cc1cc2c(cc1Cl)NC(=O)CC(c1cccc(-c3cnccn3)c1)=N2 [Example 86, 8-Chloro-7-methyl-4-(3-pyrazin-2-yl-phenyl)-1,3-dihydro-benzo[b][1,4]diazepin-2-one] | 232
O=C1CC(c2cccc(-c3cnccn3)c2)=Nc2cc(Cl)c(Cl)cc2N1 [Example 88, 7,8-Dichloro-4-(3-pyrazin-2-yl-phenyl)-1,3-dihydro-benzo[b][1,4]diazepin-2-one] | 268
O=C1CC(c2cccc(-c3cnccn3)c2)=Nc2ccc(C(F)(F)F)cc2N1 [Example 89, 4-(3-Pyrazin-2-yl-phenyl)-8-trifluoromethyl-1,3-dihydro-benzo[b][1,4]diazepin-2-one] | 223
CN(C)c1cc2c(cc1C(F)(F)F)NC(=O)CC(c1cccc(-c3cnccn3)c1)=N2 [Example 90, 7-Dimethylamino-4-(3-pyrazin-2-yl-phenyl)-8-trifluoromethyl-1,3-dihydro-benzo[b][1,4]diazepin-2-one] | 204
O=C1CC(c2cccc(-c3cnccn3)c2)=Nc2cc(Cl)c(C(F)(F)F)cc2N1 [Example 91, 7-Chloro-4-(3-pyrazin-2-yl-phenyl)-8-trifluoromethyl-1,3-dihydro-benzo[b][1,4]diazepin-2-one] | 235
O=C1CC(c2cccc(-c3cnccn3)c2)=Nc2ccc(-c3ccccc3F)cc2N1 [Example 92, 8-(2-Fluoro-phenyl)-4-(3-pyrazin-2-yl-phenyl)-1,3-dihydro-benzo[b][1,4]diazepin-2-one] | 241
Cc1cc2c(cc1C(F)(F)F)N=C(c1cccc(-c3cnccn3)c1)CC(=O)N2 [Example 93, 8-Methyl-4-(3-pyrazin-2-yl-phenyl)-7-trifluoromethyl-1,3-dihydro-benzo[b][1,4]diazepin-2-one] | 216
O=C1CC(c2cccc(-c3cncnc3)c2)=Nc2ccc(Cl)cc2N1 [Example 94, 8-Chloro-4-(3-pyrimidin-5-yl-phenyl)-1,3-dihydro-benzo[b][1,4]diazepin-2-one] | 234
O=C1CC(c2cccc(-c3cncnc3)c2)=Nc2cc(Cl)c(C(F)(F)F)cc2N1 [Example 95, 7-Chloro-4-(3-pyrimidin-5-yl-phenyl)-8-trifluoromethyl-1,3-dihydro-benzo[b][1,4]diazepin-2-one] | 222
CC(C)CNc1cc2c(cc1Cl)NC(=O)CC(c1cccc(-c3cncnc3)c1)=N2 [Example 96, 8-Chloro-7-isobutylamino-4-(3-pyrimidin-5-yl-phenyl)-1,3-dihydro-benzo[b][1,4]diazepin-2-one] | 241
CCCN(C)c1cc2c(cc1C(F)(F)F)NC(=O)CC(c1cccc(-c3cncnc3)c1)=N2 [Example 99, 7-(Methyl-propyl-amino)-4-(3-pyrimidin-5-yl-phenyl)-8-trifluoromethyl-1,3-dihydro-benzo[b][1,4]diazepin-2-one] | 197
O=C1CC(c2cccc(-c3ccncc3)c2)=Nc2cc(C(F)(F)F)c(Cl)cc2N1 [Example 100, 8-Chloro-4-(3-pyridin-4-yl-phenyl)-7-trifluoromethyl-1,3-dihydro-benzo[b][1,4]diazepin-2-one] | 200
CCCN(C)c1cc2c(cc1C(F)(F)F)NC(=O)CC(c1cccc(-c3cnccn3)c1)=N2 [Example 102, 7-(Methyl-propyl-amino)-4-(3-pyrazin-2-yl-phenyl)-8-trifluoromethyl-1,3-dihydro-benzo[b][1,4]diazepin-2-one] | 201
Cc1cc2c(cc1Cl)N=C(c1cccc(-c3cnccn3)c1)CC(=O)N2 [Example 103, 7-Chloro-8-methyl-4-(3-pyrazin-2-yl-phenyl)-1,3-dihydro-benzo[b][1,4]diazepin-2-one] | 218
Cc1cc2c(cc1C(F)(F)F)N=C(c1cccc(-c3cncnc3)c1)CC(=O)N2 [Example 106, 8-Methyl-4-(3-pyrimidin-5-yl-phenyl)-7-trifluoromethyl-1,3-dihydro-benzo[b][1,4]diazepin-2-one] | 238

Compound | melting point [°C]
O=C1CC(c2cccc(-c3ccccn3)c2)=Nc2cc(C(F)(F)F)c(Cl)cc2N1 [Example 107, 8-Chloro-4-(3-pyridin-2-yl-phenyl)-7-trifluoromethyl-1,3-dihydro-benzo[b][1,4]diazepin-2-one] | 208
Cc1cc(-c2cccc(C3=Nc4ccc(-n5cccc5)cc4NC(=O)C3)c2)ccn1 [Example 108, 4-[3-(2-Methyl-pyridin-4-yl)-phenyl]-8-pyrrol-1-yl-1,3-dihydro-benzo[b][1,4]diazepin-2-one] | 206
O=C1CC(c2cccc(-c3cnccn3)c2)=Nc2cc(C(F)(F)F)c(Cl)cc2N1 [Example 110, 8-Chloro-4-(3-pyrazin-2-yl-phenyl)-7-trifluoromethyl-1,3-dihydro-benzo[b][1,4]diazepin-2-one] | 214
O=C1CC(c2cccc(-c3cncnc3)c2)=Nc2cc(C(F)(F)F)c(Cl)cc2N1 [Example 111, 8-Chloro-4-(3-pyrimidin-5-yl-phenyl)-7-trifluoromethyl-1,3-dihydro-benzo[b][1,4]diazepin-2-one] | 217
O=C1CC(c2cccc(-c3cnccn3)c2)=Nc2cc(OCC(F)(F)F)c(C(F)(F)F)cc2N1 [Example 112, 4-(3-Pyrazin-2-yl-phenyl)-7-(2,2,2-trifluoro-ethoxy)-8-trifluoromethyl-1,3-dihydro-benzo[b][1,4]diazepin-2-one] | 242
O=C1CC(c2cccc(-c3cccnc3)c2)=Nc2cc(C(F)(F)F)c(Cl)cc2N1 [Example 113, 8-Chloro-4-(3-pyridin-3-yl-phenyl)-7-trifluoromethyl-1,3-dihydro-benzo[b][1,4]diazepin-2-one] | 208
Cc1cc(-c2cccc(C3=Nc4cc(OCC(F)(F)F)c(C(F)(F)F)cc4NC(=O)C3)c2)ccn1 [Example 114, 4-[3-(2-Methyl-pyridin-4-yl)-phenyl]-7-(2,2,2-trifluoro-ethoxy)-8-trifluoromethyl-1,3-dihydro-benzo[b][1,4]diazepin-2-one] | 223
Cc1cc(-c2cccc(C3=Nc4cc(F)c(F)cc4NC(=O)C3)c2)ccn1 [Example 115, 7,8-Difluoro-4-[3-(2-methyl-pyridin-4-yl)-phenyl]-1,3-dihydro-benzo[b][1,4]diazepin-2-one] | 217
O=C1CC(c2cccc(-c3cccnc3)c2)=Nc2cc(F)c(F)cc2N1 [Example 116, 7,8-Difluoro-4-(3-pyridin-3-yl-phenyl)-1,3-dihydro-benzo[b][1,4]diazepin-2-one] | 246
Cc1cc(-c2cccc(C3=Nc4ccc(Cl)cc4NC(=O)C3)c2)cc(C)n1 [Example 118, 8-Chloro-4-[3-(2,6-dimethyl-pyridin-4-yl)-phenyl]-1,3-dihydro-benzo[b][1,4]diazepin-2-one] | 236
Cc1cc(-c2cccc(C3=Nc4cc(F)c(F)cc4NC(=O)C3)c2)cc(C)n1 [Example 126, 7,8-Difluoro-4-[3-(2,6-dimethyl-pyridin-4-yl)-phenyl]-1,3-dihydro-benzo[b][1,4]diazepin-2-one] | 252
Cc1cc(-c2cccc(C3=Nc4cc(C(F)(F)F)c(Cl)cc4NC(=O)C3)c2)cc(C)n1 [Example 128, 8-Chloro-4-[3-(2,6-dimethyl-pyridin-4-yl)-phenyl]-7-trifluoromethyl-1,3-dihydro benzo[b][1,4]diazepin-2-one] | 207
Cc1cncc(-c2cccc(C3=Nc4cc(C(F)(F)F)c(C)cc4NC(=O)C3)c2)n1 [Example 130, 8-Methyl-4-[3-(6-methyl-pyrazin-2-yl)-phenyl]-7-trifluoromethyl-1,3-dihydro-benzo[b][1,4]diazepin-2-one] | 211
Cc1cncc(-c2cccc(C3=Nc4cc(C)c(Cl)cc4NC(=O)C3)c2)n1 [Example 131, 8-Chloro-7-methyl-4-[3-(6-methyl-pyrazin-2-yl)-phenyl]-1,3-dihydro-benzo[b][1,4]diazepin-2-one] | 235
Cc1cncc(-c2cccc(C3=Nc4cc(Cl)c(C)cc4NC(=O)C3)c2)n1 [Example 132, 7-Chloro-8-methyl-4-[3-(6-methyl-pyrazin-2-yl)-phenyl]-1,3-dihydro-benzo[b][1,4]diazepin-2-one] | 254
Cc1cc(-c2cccc(C3=Nc4cc(C)c(Cl)cc4NC(=O)C3)c2)c(C)cn1 [Example 134, 8-Chloro-4-[3-(2,5-dimethyl-pyridin-4-yl)-phenyl]-7-methyl-1,3-dihydro-benzo[b][1,4]diazepin-2-one] | 208
Cc1cc(-c2cccc(C3=Nc4cc(C)c(C(F)(F)F)cc4NC(=O)C3)c2)c(C)cn1 [Example 135, 4-[3-(2,5-Dimethyl-pyridin-4-yl)-phenyl]-7-methyl-8-trifluoromethyl-1,3-dihydro benzo[b][1,4]diazepin-2-one] | 211
Cc1cc(-c2cccc(C3=Nc4cc(Cl)c(C(F)(F)F)cc4NC(=O)C3)c2)c(C)cn1 [Example 136, 7-Chloro-4-[3-(2,5-dimethyl-pyridin-4-yl)-phenyl]-8-trifluoromethyl-1,3-dihydro benzo[b][1,4]diazepin-2-one] | 214
